# Earlier results as cited in US8324248B2, “Piperidine derivatives as NK3 receptor antagonists” (Hoffmann-La Roche Inc., priority 2009, dated 2012).
# Conditions: phase II trial, cited from earlier work
smiles,measurement,setting,value
"CC(=O)N(C)C1(c2ccccc2)CCN(CCC[C@]2(c3ccc(Cl)c(Cl)c3)CCCN(C(=O)c3ccccc3)C2)CC1 [SR 142,801, Osanetant]",activity on positive symptoms of schizophrenia,"altered behavior, delusion, hallucinations, extreme emotions, excited motor activity, incoherent speech",active
same,activity in the treatment of negative symptoms,"depression, anhedonia, social isolation or memory and attention deficits",inactive
